Test results taken from patent US20250339567A1, “COMPOUNDS WITH IMPROVED PHARMACOKINETICS FOR IMAGING AND THERAPY OF CANCER” (priority 2019, published 2025).
Read-outs that look alike come from different tables or passages of the source. Starred links: 1 amine or outer side, 2 acyl side, 3 side chain; linkers in the order of their positions; H or OH if unused. Non-standard residues stand in square brackets, D forms with d. Residues, ends and D or L forms follow the SMILES beside them. *: point of attachment. X4 = O=C(O)CN1CCN(CC(=O)O)CCN(CC(=O)NCc2ccc(NC(=O)COCC(=O)*)cc2)CCN(CC(=O)O)CC1; DOTAGA = O=C(O)CN1CCN(CC(=O)O)CCN(C(CCC(=O)*)C(=O)O)CCN(CC(=O)O)CC1; Benzoyl(4-SiFtBu2) = CC(C)(C)[Si](F)(c1ccc(C(=O)*)cc1)C(C)(C)C; DOTA = O=C(O)CN1CCN(CC(=O)O)CCN(CC(=O)*)CCN(CC(=O)O)CC1; d(γGlu) = O=C(O)[C@@H](CCC(=O)[*:2])N[*:1]; Sta = CC(C)C[C@H](N)[C@@H](O)CC(=O)O; Bta = N[C@@H](Cc1csc2ccccc12)C(=O)O; X1 = O=C(CN1CCC(N[*:1])CC1)[*:2]; NHCH(iBu)2 = CC(C)CC(CC(C)C)N*; dOrn = NCCC[C@@H](N)C(=O)O; hSer = N[C@@H](CCO)C(=O)O; Nle = CCCC[C@H](N)C(=O)O; dDap = NC[C@@H](N)C(=O)O; CO = O=C([*:1])[*:2]; βAla = NCCC(=O)O

How the values were obtained:
[1] = target: T1, GRPR (Homo sapiens, UniProt P30550); assay: Determination of GRPR affinity (IC50), competition with [D-3-[125I]I-Tyr6]MJ9 on PC-3 cells; format: binding; settings: for IC50 [nM], ^natLu-labeled (n = 3): Table 6, natLu-labeled
T1 construct: endogenous in cells; host or cells: PC-3 cells
T1 sequence (P30550 whole entry): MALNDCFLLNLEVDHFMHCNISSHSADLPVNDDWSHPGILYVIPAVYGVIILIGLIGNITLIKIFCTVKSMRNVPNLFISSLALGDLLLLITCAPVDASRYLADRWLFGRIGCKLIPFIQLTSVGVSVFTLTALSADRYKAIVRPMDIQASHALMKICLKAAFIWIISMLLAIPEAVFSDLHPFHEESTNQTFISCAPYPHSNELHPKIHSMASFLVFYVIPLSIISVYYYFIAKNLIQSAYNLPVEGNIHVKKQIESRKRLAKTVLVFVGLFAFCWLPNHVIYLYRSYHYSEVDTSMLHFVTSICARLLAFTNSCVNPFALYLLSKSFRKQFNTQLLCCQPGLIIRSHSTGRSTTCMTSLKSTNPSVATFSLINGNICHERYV
Procedure: The reference ligand for IC50 studies ([D-3-[^125I]I-Tyr^6]MJ9) is prepared according to a previously published procedure. Briefly, 0.2 mg of [D-Tyr^6]MJ9 are dissolved in 20 μL Tracepur water and 280 μL TRIS buffer (25 mm TRIS HCl, 0.4 M NaCl, pH=7.9). After addition of the solution to a vial containing 150 μg Iodo-Gen® (1,3,4,6-Tetrachloro-3α,6α-diphenylglycouril, surface-bound), 5.0 μL (16 MBq) [^125I]Nal(74 TBq/mmol, 3.1 GBq/mL, 40 mM NaOH, Hartmann Analytic, Braunschweig, Germany) are added.
The GRPR-positive PC-3 cells are cultured in Dublecco modified Eagle medium/Nutrition Mixture F-12 with Glutamax-I (1:1) (Invitrigon), supplemented with 10% fetal calf serum and maintained at 37° C. in a humidified 5% CO2 atmosphere.
After removal of the culture medium, the cells are washed once with 500 μL of HBSS (Hank's balanced salt solution, Biochrom, Berlin, Germany, with addition of 1% bovine serum albumin (BSA)) and left in 200 μL HBSS (1% BSA) for 9 min at room temperature for equilibration. Next, 25 μL per well of solutions, containing either HBSS (1% BSA) as control or the respective ligand in increasing concentration (10^−10 M-10^−4 M in HBSS), are added with subsequent addition of 25 μL of [D-3-[^125I]I-Tyr^6]MJ9 (2.0 nM) in HBSS (1% BSA).
All experiments are performed in triplicate for each concentration. After 2 h incubation at room temperature, the experiment is terminated by removal of the medium and consecutive rinsing with 300 μL of HBSS. The media of both steps are combined in one fraction and represent the amount of free radiolabeled reference. Afterwards, the cells are lysed with 300 μL of 1 M NaOH for at least 15 min and united with the 300 μL NaOH of the following washing step. Quantification of bound and free radiolabeled reference is accomplished in a γ-counter.
IC50 determination for each ligand was repeated twice.

[2] = Plasma studies: metabolic stability in vitro in human plasma (radio RP-HPLC); format: in vitro ADME
Procedure: Metabolic stability in vitro was determined applying a procedure published by Linder et al. that was slightly modified. Immediately after labeling, human (200 μL) or murine (100 μL) plasma was added and the mixture was incubated at 37° C. for 72±2 h (or 6±0.5 h). Proteins were precipitated by treatment with ice-cold EtOH (150 μL [human], 100 μL [murine]) and ice-cold MeCN (450 μL [human], 300 μL [murine]), followed by centrifugation for 20 min at 13000 rpm. The supernatants were decanted and further analyzed using radio RP-HPLC. […]

[3] = n-Octanol-PBS distribution coefficient, log D7.4; format: physicochemical; settings: for log D7.4 (n = 6), ^177Lu-labeled: Table 6, 177Lu-labeled Bombesin-SiFA compounds
Procedure: Approximately 1 MBq of the labeled tracer was dissolved in 1 mL of a 1:1 mixture (v/v) of phosphate buffered saline (PBS, pH=7.4) and n-octanol in an Eppendorf tube. After vigorous mixing of the suspension for 3 min at room temperature, the vial was centrifuged at 9000 rpm for 5 min (Biofuge 15, Heraus Sepatech, Osterode, Germany) and 200 μL aliquots of both layers were measured in a γ-counter. The experiment was repeated at least four times.

[4] = read-out: IC50 [nM] ± SD (n = 3), ^177Lu-labeled, Table 1C, GRPR affinity
[5] = Table 1C, 177Lu-labeled, 37° C., 72 ± 2 h, in % (unit assumed)
[6] = [D-3-[125I]I-Tyr6]MJ9 (c = 0.2 nM), 2 h, r.t.

CC(C)CC(CC(C)C)NC(=O)[C@H](Cc1c[nH]cn1)NC(=O)CNC(=O)[C@@H](NC(=O)[C@H](C)NC(=O)[C@H](Cc1csc2ccccc12)NC(=O)[C@H](CCC(N)=O)NC(=O)[C@@H](Cc1ccccc1)NC(=O)COCC(=O)Nc1ccc(CNC(=O)CN2CCN(CC(=O)O)CCN(CC(=O)O)CCN(CC(=O)O)CC2)cc1)C(C)C [[Bta^8]NeoBOMB1] (X4-[dF]Q[Bta]AVGH-{NHCH(iBu)2}; N-terminus and C-terminus assumed)
IC50 [1, 4]: 13 ± 3 nM
Amount of intact tracer after incubation in human plasma for 72 ± 2 h (n = 2) [2, 5]: 36.2 ± 3.8

CC(C)CC(CC(C)C)NC(=O)[C@H](Cc1c[nH]cn1)NC(=O)CNC(=O)[C@@H](NC(=O)[C@H](C)NC(=O)[C@H](Cc1c[nH]c2ccccc12)NC(=O)[C@H](CCO)NC(=O)[C@@H](Cc1ccccc1)NC(=O)COCC(=O)Nc1ccc(CNC(=O)CN2CCN(CC(=O)O)CCN(CC(=O)O)CCN(CC(=O)O)CC2)cc1)C(C)C [[Hse^7]NeoBOMB1] (X4-[dF][hSer]WAVGH-{NHCH(iBu)2}; N-terminus and C-terminus assumed)
IC50 [1, 4]: 8.3 ± 0.7 nM
Amount of intact tracer after incubation in human plasma for 72 ± 2 h (n = 2) [2, 5]: 57.4 ± 2.1

CC(C)C[C@H](NC(=O)C[C@H](O)[C@H](CC(C)C)NC(=O)[C@H](Cc1c[nH]cn1)NC(=O)CNC(=O)[C@@H](NC(=O)[C@H](C)NC(=O)[C@H](Cc1c[nH]c2ccccc12)NC(=O)[C@H](CCO)NC(=O)[C@@H](Cc1ccccc1)NC(=O)CN1CCC(NC(=O)CN2CCN(CC(=O)O)CCN(CC(=O)O)CCN(CC(=O)O)CC2)CC1)C(C)C)C(N)=O [[^natGa]DOTA-[Hse^7]MJ9, metal not drawn]
IC50 ([1]; read-out: IC50 ± SD (n = 3), Table 3, [D-3-[125I]I-Tyr6]MJ9 (c = 0.2 nM), 2 h, r.t., HBSS + 1% BSA): 12.2 ± 0.2 nM

CC(C)C[C@H](NC(=O)C[C@H](O)[C@H](CC(C)C)NC(=O)[C@H](Cc1c[nH]cn1)NC(=O)CNC(=O)[C@@H](NC(=O)[C@H](C)NC(=O)[C@H](Cc1csc2ccccc12)NC(=O)[C@H](CCC(N)=O)NC(=O)[C@@H](Cc1ccccc1)NC(=O)CN1CCC(NC(=O)CN2CCN(CC(=O)O)CCN(CC(=O)O)CCN(CC(=O)O)CC2)CC1)C(C)C)C(N)=O [[^natGa]DOTA-[Bta^8]MJ9, metal not drawn] ({DOTA}-[X1][dF]Q[Bta]AVGH[Sta]L-NH2)
IC50 ([1]; IC50 ± SD (n = 3), Table 3, [D-3-[125I]I-Tyr6]MJ9 (c = 0.2 nM), 2 h, r.t., HBSS + 1% BSA): 3.06 ± 0.15 nM

CC(C)C[C@H](NC(=O)C[C@H](O)[C@H](CC(C)C)NC(=O)[C@H](Cc1c[nH]cn1)NC(=O)CNC(=O)[C@@H](NC(=O)[C@H](C)NC(=O)[C@H](Cc1c[nH]c2ccccc12)NC(=O)[C@H](CCC(N)=O)NC(=O)[C@@H](Cc1ccccc1)NC(=O)CN1CCC(NC(=O)[C@@H](CN)NC(=O)[C@@H](CCCN)NC(=O)[C@@H](CC(=O)O)NC(=O)[C@@H](CC(=O)O)NC(=O)[C@@H](CNC(=O)CCC(C(=O)O)N2CCN(CC(=O)O)CCN(CC(=O)O)CCN(CC(=O)O)CC2)NC(=O)[C@@H](CNC(=O)c2ccc([Si](F)(C(C)(C)C)C(C)(C)C)cc2)NC(=O)CC[C@@H](NC(=O)N[C@H](CCC(=O)O)C(=O)O)C(=O)O)CC1)C(C)C)C(N)=O (stereo partly drawn) [GT50] ({dE-CO-d(γGlu)}-[dDap](Benzoyl(4-SiFtBu2))[dDap](DOTAGA)[dD][dD][dOrn][dDap][X1][dF]QWAVGH[Sta]L-NH2)
IC50 [nM], ^natLu-labeled (n = 3) [1, 6]: comparable range
log D7.4 (n = 6), ^177Lu-labeled [3]: −1.96 ± 0.15

CC(C)C[C@H](NC(=O)C[C@H](O)[C@H](CC(C)C)NC(=O)[C@H](Cc1c[nH]cn1)NC(=O)CNC(=O)[C@@H](NC(=O)[C@H](C)NC(=O)[C@H](Cc1c[nH]c2ccccc12)NC(=O)[C@H](CCC(N)=O)NC(=O)[C@@H](Cc1ccccc1)NC(=O)CN1CCC(NC(=O)[C@H](CC(=O)O)NC(=O)C(CNCCN)CNCCN)CC1)C(C)C)C(N)=O [Ligand N4-asp-MJ9]
IC50 ([1]; IC50 [nM] ± SD (n = 3), Table 5, non-labeled N4 ligands, [D-3-[125I]I-Tyr6]MJ9 (c = 0.2 nM), 2 h, r.t.): 3.73 ± 0.78 nM
log D7.4 (n = 6), ^99mTc-labeled ([3]; 99mTc-labeled, n-octanol/PBS pH 7.4): −1.86 ± 0.03

CC(C)CC(CC(C)C)NC(=O)[C@H](Cc1c[nH]cn1)NC(=O)CNC(=O)[C@@H](NC(=O)[C@H](C)NC(=O)[C@](C)(Cc1c[nH]c2ccccc12)NC(=O)[C@H](CCC(N)=O)NC(=O)[C@@H](Cc1ccccc1)NC(=O)COCC(=O)Nc1ccc(CNC(=O)CN2CCN(CC(=O)O)CCN(CC(=O)O)CCN(CC(=O)O)CC2)cc1)C(C)C [[α-Me-Trp^8]NeoBOMB1]
IC50 [1, 4]: 6.8 ± 1.2 nM
Amount of intact tracer after incubation in human plasma for 72 ± 2 h (n = 2) [2, 5]: 70.7 ± 2.8

CC(C)C[C@H](NC(=O)C[C@H](O)[C@H](CC(C)C)NC(=O)[C@H](Cc1c[nH]cn1)NC(=O)CNC(=O)[C@@H](NC(=O)[C@H](C)NC(=O)[C@H](Cc1c[nH]c2ccccc12)NC(=O)[C@H](CCC(N)=O)NC(=O)[C@@H](Cc1ccccc1)NC(=O)CN1CCC(NC(=O)[C@@H](CN)NC(=O)[C@@H](CC(=O)O)NC(=O)[C@@H](CCCN)NC(=O)[C@@H](CNC(=O)CCC(C(=O)O)N2CCN(CC(=O)O)CCN(CC(=O)O)CCN(CC(=O)O)CC2)NC(=O)[C@@H](CNC(=O)c2ccc([Si](F)(C(C)(C)C)C(C)(C)C)cc2)NC(=O)CC[C@@H](NC(=O)N[C@H](CCC(=O)O)C(=O)O)C(=O)O)CC1)C(C)C)C(N)=O (stereo partly drawn) [GT51] ({dE-CO-d(γGlu)}-[dDap](Benzoyl(4-SiFtBu2))[dDap](DOTAGA)[dOrn][dD][dDap][X1][dF]QWAVGH[Sta]L-NH2)
IC50 [nM], ^natLu-labeled (n = 3) [1, 6]: slightly increased
log D7.4 (n = 6), ^177Lu-labeled [3]: −1.96 ± 0.15

CC(C)C[C@H](NC(=O)C[C@H](O)[C@H](CC(C)C)NC(=O)[C@H](Cc1c[nH]cn1)NC(=O)CNC(=O)[C@@H](NC(=O)[C@H](C)NC(=O)[C@](C)(Cc1c[nH]c2ccccc12)NC(=O)[C@H](CCC(N)=O)NC(=O)[C@@H](Cc1ccccc1)NC(=O)CN1CCC(NC(=O)CCC(C(=O)O)N2CCN(CC(=O)O)CCN(CC(=O)O)CCN(CC(=O)O)CC2)CC1)C(C)C)C(N)=O (single isomer, unassigned) [AMTG2]
log D7.4 ± SD (n = 8) ([3]; 177Lu-labeled ligand, n-octanol/PBS pH 7.4): −2.51 ± 0.11

CC(C)C[C@H](NC(=O)C[C@H](O)[C@H](CC(C)C)NC(=O)[C@H](Cc1c[nH]cn1)NC(=O)CNC(=O)[C@@H](NC(=O)[C@H](C)NC(=O)[C@H](Cc1c[nH]c2ccccc12)NC(=O)[C@H](CCC(N)=O)NC(=O)[C@@H](Cc1ccccc1)NC(=O)CN1CCC(NC(=O)CN2CCC(NC(=O)[C@@H](CC(=O)O)NC(=O)[C@@H](CNC(=O)CCC(C(=O)O)N3CCN(CC(=O)O)CCN(CC(=O)O)CCN(CC(=O)O)CC3)NC(=O)[C@@H](CNC(=O)c3ccc([Si](F)(C(C)(C)C)C(C)(C)C)cc3)NC(=O)CC[C@@H](NC(=O)N[C@H](CCC(=O)O)C(=O)O)C(=O)O)CC2)CC1)C(C)C)C(N)=O (stereo partly drawn) [GT53] ({dE-CO-d(γGlu)}-[dDap](Benzoyl(4-SiFtBu2))[dDap](DOTAGA)[dD][X1][X1][dF]QWAVGH[Sta]L-NH2)
IC50 [nM], ^natLu-labeled (n = 3) [1, 6]: slightly increased
log D7.4 (n = 6), ^177Lu-labeled [3]: −1.81 ± 0.15

CCCC[C@H](NC(=O)[C@H](Cc1ccccc1)NC(=O)[C@H](Cc1c[nH]cn1)NC(=O)CCNC(=O)[C@@H](NC(=O)[C@H](C)NC(=O)[C@H](Cc1csc2ccccc12)NC(=O)[C@H](CCC(N)=O)NC(=O)[C@@H](Cc1ccccc1)NC(=O)CN1CCN(CC(=O)O)CCN(CC(=O)O)CCN(CC(=O)O)CC1)C(C)C)C(N)=O [DOTA-[Bta^8]UL] ({DOTA}-[dF]Q[Bta]AV[βAla]HF[Nle]-NH2)
Amount of intact tracer after incubation in human plasma for 72 ± 2 h (n = 2) [2]: 0 ± 0
